No end group written: not given here.
How the values were obtained:
NPFF-R2 = molecular target: T1, NPFF-R2 (Homo sapiens, UniProt Q9Y5X5); assay: Competitive binding, [^125I]-1DMe, membranes of CHO-K1 cells with NPFF-R2
T1 construct: host or cells: CHO-K1 (AequoScreen, co-expressing aequorin)
Description: (§1) Pellets of CHO-K1 cells containing NPFF-R2, NPFF-R1 and KOR receptors were homogenized in ice-cold homogenizing buffer (20 mM HEPES pH 7.1, 5 mM MgCl2, 0.7 mM bacitracin) with a DIAX 100 Homogenizer (Heidolph Instruments, Schwabach, Germany) and centrifuged in an ultracentrifuge (Beckman Coulter, Fullerton, CA, USA) at 26,000× g for 15 min at 4 °C. The pellets were homogenized in ice-cold homogenization buffer, and the previous steps were repeated 2 more times. After the third centrifugation, pellets were resuspended in ice-cold storage buffer (50 mM Tris-Cl pH 7.4, 0.5 mM EDTA, 10 mM MgCl2, 10% sucrose), and aliquots were stored at −80 °C. The concentration of isolated membrane proteins was determined by a PierceTM BCA Protein Assay Kit (Pierce, Rockford, IL, USA). […]
(§2) Experiments were carried out in duplicate at least three times, and Ki was calculated using the Cheng-Prusoff equation.
(§3) Data were analyzed by GraphPad Software (San Diego, CA, USA) and are presented as the means ± SEM. The saturation and competitive binding experiments were analyzed according to [46] using the Cheng-Prusoff equation [33]. […] From saturation binding experiments, the dissociation constant (Kd) and number of binding sites/cell (Bmax) were calculated. Inhibition constants (Ki) were calculated from IC50 values, Kd and the concentration of radioligands.

KOR [1] = molecular target: T2, KOR (Homo sapiens, UniProt P41145); assay: cell-based
T2 construct: host or cells: CHO-K1

Y2 = molecular target: T3, Y2 (Homo sapiens, UniProt P49146); assay: Competitive and saturation binding, [^125I]-PYY, U2OS cells with Y2
T3 construct: host or cells: U2OS
T3 sequence (P49146 1-381): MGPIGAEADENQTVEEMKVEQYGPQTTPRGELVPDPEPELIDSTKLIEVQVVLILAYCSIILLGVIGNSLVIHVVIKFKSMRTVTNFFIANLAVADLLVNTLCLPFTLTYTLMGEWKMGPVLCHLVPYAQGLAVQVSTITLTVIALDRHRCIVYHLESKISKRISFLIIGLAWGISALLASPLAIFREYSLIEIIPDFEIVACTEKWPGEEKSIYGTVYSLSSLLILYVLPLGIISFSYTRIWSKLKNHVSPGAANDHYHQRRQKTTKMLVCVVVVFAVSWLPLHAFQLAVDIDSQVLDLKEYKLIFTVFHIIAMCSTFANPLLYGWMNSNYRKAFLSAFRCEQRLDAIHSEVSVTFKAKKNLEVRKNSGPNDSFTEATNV
Description: (§4) Competition binding experiments were performed according to [45]. […] Binding experiments using U2OS cells were optimized and performed in assay buffer (50 mM Tris-Cl pH 7.4, 118 mM NaCl, 5 mM MgCl2, 4.7 mM KCl, 0.1% BSA) for cells stably expressing GHSR and (25 mM HEPES, 120 mM NaCl, 5 mM MgCl2, 4.7 mM KCl, 1 mM CaCl2, 0.5% BSA, 2 g/L glucose) for cells containing receptors Y1, Y2 and Y5. […] Cells were incubated for 60 min at room temperature (RT).
as §2
(§5) Data were analyzed by GraphPad Software (San Diego, CA, USA) and are presented as the means ± SEM. The saturation and competitive binding experiments were analyzed according to [46] using the Cheng-Prusoff equation [33]. The competitive binding curves were plotted compared to the best fit for single-binding site models, and half maximal inhibitory concentration (IC50) values were obtained from nonlinear regression analysis. From saturation binding experiments, the dissociation constant (Kd) and number of binding sites/cell (Bmax) were calculated. Inhibition constants (Ki) were calculated from IC50 values, Kd and the concentration of radioligands.

KOR [2] = molecular target: T2, KOR; assay: Competitive and saturation binding, [^125I]-dynorphin, membranes of CHO-K1 cells with KOR; details: competition with [^125I]-dynorphin A, CHO-K1 membranes 5 µg protein/tube, 60 min RT; mean ± SEM, 2–5 independent experiments in duplicates; Cheng-Prusoff
Description: as §1, §2, §3

Y5 [3] = molecular target: T4, Y5 (Homo sapiens, UniProt Q15761); assay: Competitive and saturation binding, [^125I]-PYY, U2OS cells with Y5
T4 construct: host or cells: U2OS
T4 sequence (Q15761 1-445): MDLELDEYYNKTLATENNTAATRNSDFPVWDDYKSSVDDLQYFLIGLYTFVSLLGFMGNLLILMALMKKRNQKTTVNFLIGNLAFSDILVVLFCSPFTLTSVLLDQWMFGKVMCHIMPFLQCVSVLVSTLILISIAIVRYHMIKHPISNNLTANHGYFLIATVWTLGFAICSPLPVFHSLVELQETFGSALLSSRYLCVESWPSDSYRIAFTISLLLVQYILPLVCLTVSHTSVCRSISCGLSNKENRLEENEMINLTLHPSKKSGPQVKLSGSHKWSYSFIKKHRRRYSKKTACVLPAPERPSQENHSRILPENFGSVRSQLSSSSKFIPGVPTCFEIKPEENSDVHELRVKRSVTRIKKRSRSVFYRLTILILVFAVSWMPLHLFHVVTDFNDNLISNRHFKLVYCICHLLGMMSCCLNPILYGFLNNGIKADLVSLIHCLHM
Description: as §4, §2, §5

DOR = molecular target: T5, DOR (Homo sapiens, UniProt P41143); assay: Beta-lactamase reporter gene assay (FRET), DOR; format: cell-based; details: β-lactamase assay, agonist mode, U2OS cells; mean ± SEM, 2–3 independent experiments in duplicates
T5 construct: host or cells: U2OS

Y5 [4] = molecular target: T4, Y5; assay: Beta-lactamase reporter gene assay (FRET), Y5; format: cell-based
ORL-1 = molecular target: T6, ORL-1 (Homo sapiens, UniProt P41146); assay: Beta-lactamase reporter gene assay (FRET), ORL-1; format: cell-based; details: β-lactamase assay, agonist mode, U2OS cells; mean ± SEM, 2–3 independent experiments in duplicates
T6 construct: host or cells: U2OS

Y1 = molecular target: T7, Y1 (Homo sapiens, UniProt P25929); assay: Competitive and saturation binding, [^125I]-PYY, U2OS cells with Y1
T7 construct: host or cells: U2OS
T7 sequence (P25929 1-384): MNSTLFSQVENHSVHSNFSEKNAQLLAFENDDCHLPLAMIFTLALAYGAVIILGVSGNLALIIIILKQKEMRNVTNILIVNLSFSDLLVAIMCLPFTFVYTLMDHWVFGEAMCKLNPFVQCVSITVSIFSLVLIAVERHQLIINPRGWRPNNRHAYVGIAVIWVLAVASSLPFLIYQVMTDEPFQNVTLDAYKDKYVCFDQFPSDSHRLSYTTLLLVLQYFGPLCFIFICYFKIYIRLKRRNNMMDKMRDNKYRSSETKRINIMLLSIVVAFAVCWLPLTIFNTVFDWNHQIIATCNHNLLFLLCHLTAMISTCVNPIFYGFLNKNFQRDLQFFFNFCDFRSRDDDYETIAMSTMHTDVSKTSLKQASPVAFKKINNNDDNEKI
Description: as §4, §2, §5

MOR = molecular target: T8, MOR (Homo sapiens, UniProt P35372); assay: Beta-lactamase reporter gene assay (FRET), MOR; format: cell-based
T8 construct: host or cells: U2OS

SRAHQHSMETRTPDINPAWYTGRGIRPVGRF-NH2 [PrRP31, prolactin-releasing peptide 31, reference compound]
Ki (NPFF-R2): 0.0267 ± 0.00901 µM | EC50 (KOR [1]): > 10 µM | Ki (Y2): > 10 µM | Ki (KOR [2]): > 10 µM | Ki (Y5 [3]): 2.86 ± 0.043 µM | EC50 (DOR): > 10 µM | EC50 (Y5 [4]): > 10 µM | EC50 (ORL-1): > 10 µM | Ki (Y1): > 10 µM | EC50 (MOR): > 10 µM

CCCCCCCCCCCCCCCC(=O)N[C@@H](CO)C(=O)N[C@@H](CCCNC(=N)N)C(=O)N[C@H](C(=O)N[C@@H](Cc1c[nH]cn1)C(=O)N[C@@H](CCCNC(=N)N)C(=O)N[C@@H](Cc1c[nH]cn1)C(=O)N[C@@H](CO)C(=O)N[C@@H](CCSC)C(=O)N[C@@H](CCC(=O)O)C(=O)N[C@H](C(=O)N[C@@H](CCCNC(=N)N)C(=O)N[C@H](C(=O)N1CCC[C@H]1C(=O)N[C@@H](CC(=O)O)C(=O)N[C@H](C(=O)N[C@@H](CC(N)=O)C(=O)N1CCC[C@H]1C(=O)N[C@@H](C)C(=O)N[C@@H](Cc1c[nH]c2ccccc12)C(=O)N[C@@H](Cc1ccc(O)cc1)C(=O)N[C@@H](C)C(=O)N[C@@H](CO)C(=O)N[C@@H](CCCNC(=N)N)C(=O)NCC(=O)N[C@H](C(=O)N[C@@H](CCCNC(=N)N)C(=O)N1CCC[C@H]1C(=O)N[C@H](C(=O)NCC(=O)N[C@@H](CCCNC(=N)N)C(=O)N[C@@H](Cc1ccccc1)C(N)=O)C(C)C)[C@@H](C)CC)[C@@H](C)CC)[C@@H](C)O)[C@@H](C)CC)[C@@H](C)O [Palm-PrRP31]
Ki (NPFF-R2): 0.00077 ± 0.00019 µM | EC50 (KOR [1]): > 10 µM | Ki (Y2): > 10 µM | Ki (KOR [2]): 0.106 ± 0.015 µM | Ki (Y5 [3]): 0.0326 ± 0.00616 µM | EC50 (DOR): > 10 µM | EC50 (Y5 [4]): 0.0565 ± 0.0184 µM | EC50 (ORL-1): > 10 µM | Ki (Y1): 3.147 ± 0.031 µM | EC50 (MOR): > 10 µM
